# Data taken from US5356886A, “Antiviral phosphono-alken derivatives of purines” (Beecham Group p.l.c., priority 1990, dated 1994).
# What was measured:
# Type in all cases: cell-based
# [1] = Cell cytotoxicity test (MTT) in peripheral human lymphocytes
# Description: Peripheral human lymphocytes were isolated by density gradient centrifugation from blood donations of healthy volunteers. The `buffy coat`-fractions of these donations were provided by blood donation centres.
# The buffy coat was diluted 1:1 with sterile phosphate buffered saline (PBS; 50 mM sodium phosphate, pH 7.4, 0,9% sodium chloride) and subsequently layered over Ficoll. Following centrifugation (30 minutes at 400×g) the supernatant was discarded and the interphase containing the lymphocytes was recovered. The lymphocytes were washed two times in PBS and were resuspended finally in cell culture medium.
# A viability staining was performed by means of the trypan blue dye-exclusion method. The concentration of cells in the suspension and the percentage of viable cells were calculated. […]
# The lymphocytes were cultivated in an incubator with a humidified atmosphere and 5% CO2 for 48 to 64 hours at 37° C. Following this incubation period, cells were harvested by centrifugation, resuspended in cell culture medium and counted. […]
# Survival and proliferation of the lymphocytes grown in the presence of the compound were measured by a quantitative colorimetric assay. […] The amount of product which is a function of cell number and metabolic cellular activity was quantified photometrically. By this assay, potential cytotoxic and cytostatic effects of compounds towards lymphocytes were detected precisely. […]
# [2] = Drug-induced cytotoxicity for the MRC-5 cell monolayers in the CMV test; conditions: human, mrc-5 cells, read-out: concentration at which cytotoxicity was noted
# Description: MRC-5 cells were grown to confluence in 24 well multi-dishes (well diameter=1.5 cm). The drained cell monolayers were each infected with approximately 50 infectious particles of cytomegalovirus (CMV; AD-169 strain) in 100 μl of phosphate-buffered saline. The virus was adsorbed for 1 hour at room temperature. After adsorption, residual inoculum was removed from each well and replaced with 1 ml of Eagle's MEM containing 10% heat inactivated foetal calf serum and 0.9% agarose (A37). Once the agarose had set, dilutions of the test compound, which had been prepared in Eagle's MEM (containing 10% heat-inactivated calf serum), were added, each well receiving 1 ml of liquid overlay. The test compound was diluted to give the following series of concentrations: 200, 60, 20, 6 . . . 0.06 μg/ml; final concentrations in the assay range, therefore, between 100 μg/ml and 0.03 μg/ml. The infected cultures were incubated at 37° C. in a humidified atmosphere containing 5% CO2 until plaques were clearly visible (about 12 days). The cultures are fixed in formol saline, the agarose overlays were carefully washed off, and then the cell monolayers were stained with carbol fuchsin. A stereo microscope was used to count plaques. […] In addition, the monolayers were examined for evidence of drug-induced cytotoxicity; the minimum concentration at which cytotoxicity occurs was recorded.
# HSV-1 = test: Plaque Reduction Test for Herpes Simplex Virus 1 (strain SC16) in MRC-5 cells; conditions: Human alphaherpesvirus 1, MRC5
# Description: (§1) MRC-5 cells were grown to confluence in 24 well multi-dishes (well diameter=1.5 cm). The drained cell monolayers were each infected with approximately 50 infectious particles of herpes simplex virus 1 (HSV-1; strain SC16) or herpes simplex virus 2 (HSV-2; strain MS) in 100 μl of phosphate-buffered saline. The virus was adsorbed for 1 hour at room temperature. After adsorption, residual inoculum was removed from each well and replaced with 0.5 ml of Eagle's MEM containing 5% newborn calf serum and 0.9% agarose (A37). Once the agarose had set, dilutions of the test compound, which had been prepared in Eagle's MEM (containing 5% newborn calf serum), were added, each well receiving 0.5 ml of liquid overlay. The test compound was diluted to give the following series of concentrations: 200, 60, 20, 6 . . . 0.06 μg/ml; final concentrations in the assay ranged, therefore, between 100 μg/ml and 0.03 μg/ml. The infected cultures were incubated at 37° C. in a humidified atmosphere of 5% CO2 until plaques were clearly visible (usually 1 day).
# (§2) Cultures from 1 and 2 were fixed in formal saline, the agarose overlays were carefully washed off, and then the cell monolayers were stained with carbol fuchsin. A stereo microscope was used to count plaques. The IC50 (concentration of drug which inhibits the number of plaques formed by 50% relative to the number of plaques observed in virus control monolayers) of the test compound was calculated. In addition, the monolayers were examined for evidence of drug-induced cytotoxicity; the minimum concentration at which cytotoxicity occurs was recorded.
# HSV-2 = test: Plaque Reduction Test for Herpes Simplex Virus 2 (strain MS) in MRC-5 cells; conditions: Human alphaherpesvirus 2, MRC5
# Description: as §1, §2
# VZV = test: Plaque Reduction Test for Varicella-Zoster Virus (Ellen strain) in MRC-5 cells; conditions: Human alphaherpesvirus 3, MRC5
# Description: as §1, with “varicella zoster” for “herpes simplex”, “(VZV; Ellen strain)” for “1 (HSV-1; strain SC16) or herpes simplex virus 2 (HSV-2; strain MS)”, “heat-inactivated foetal” for “newborn”, “(5 or 6 days).” for “(usually 1 day).”
# as §2
structure (smiles),measurement,setting,value
"Nc1nc2c(ncn2OCC/C=C/P(=O)(O)O)c(=O)[nH]1 [Example 1, (E)-9-(4-phosphonobut-3-enyloxy)guanine]",CC50 at 96 h,[1],1000 nM
same,cytotoxicity at 0.1 µM,"[1]; at 0.1 μM, read-out: Slight toxicity (inhibition)",18%
same,MCC,[2],10 µg/mL
same,IC50,HSV-1,< 3 µg/mL
same,IC50,HSV-2,< 3 µg/mL
same,IC50,VZV,< 3 µg/mL
